One experiment relates to histiocytic lymphoma (U937). Briefly: cell proliferation assay ([methyl-3H] thymidine incorporation), U937. Type of experiment: cell-based, human. As to conditions: 6 μM; comparison compound. As to the method:
(§1) Two human cell lines namely a histiocytic lymphoma (U937) and a melanoma (RPMI-7951) were seeded into 30 mm^2 tissue culture wells, in the appropriate culture medium supplemented with 10% fetal calf serum at a density of 250 cells/mm^2. Six hours later the test compounds were added in the same culture medium to the cells to give a final concentration of 6 μM. Control wells contained cells supplemented with the same culture medium containing the equivalent amount of drug vehicle, which in this case was DMSO at a final concentration of 0.08%. After 72 hours in culture the cells were pulsed for 3 hours with [methyl-^3[H] Thymidine] (2 μCi/ml) and then harvested onto filter mats and DNA associated radioactivity counted. Results are expressed as percentage of control ^3[H] Thymidine incorporation (n=6±1 stdv).
Further examples were tested in the U937 assay described above at 6 μM and the results, expressed as percentage of control ^3[H] Thymidine incorporation (n=6±1 stdv), are set out in the following Table 2.
as §1, with “A” for “Two”, “line,” for “lines”, “(U937), was” for “(U937) and a melanoma (RPMI-7951) were”, “30MM^2” for “30 mm^2”, “cellS/MM^2.” for “cells/mm^2.”, “were” for “are”
For `O=c1[nH]cc(F)c(=O)[nH]1` [5-fluorouracil, reference compound], the “activity in the U937 assay relative to that observed with the vehicle alone” value is recorded as 50%.

The experiment is the same for the next values; noted with them: Homo sapiens, U-937; Table 1; final concentration 6 μM; 72 hours in culture, 3 hours pulse; n=6; read-out: U937: percentage of control 3[H] Thymidine incorporation.
In the case of `COC(=O)[C@@H](Cc1ccccc1)NC(=O)[C@@H](CC(C)C)[C@@H](C)C(=O)NO` [Example 4, 3S-(2-Phenyl-1R-methylcarboxy-ethylcarbamoyl)-2R, 5-dimethylhexanohydroxamic acid, reference compound], the activity at 6 µM was 93%.

Still in this experiment, the particulars now being: Homo sapiens, U-937; Table 2; 6 μM; 72 hours in culture; n=6; read-out: U937: percentage of control 3[H] Thymidine incorporation.
In the case of `C=CC[C@H](C(=O)NO)[C@@H](CC(C)C)C(=O)N[C@@H](Cc1ccccc1)C(=O)OC(C)(C)C` [Example 6, 2S-(3S-Hydroxycarbamoyl-2R-isobutyl-hex-5-enoylamino)-3-phenyilpropionic acid tert-butyl ester], the activity at 6 µM was 18%.

Regarding `CC(C)C[C@H](CC(=O)NO)C(=O)N[C@@H](Cc1ccccc1)C(=O)OC(C)C` [Example 7, 2S-(2R-Hydroxycarbamoylmethyl-4-methyl-pentanoylamino)-3-phenyl-propionic acid isopropyl ester], the activity at 6 µM amounted to 0%.

For the molecule `CC(C)C[C@@H](C(=O)N[C@@H](Cc1ccccc1)C(=O)OC(C)C)[C@H](O)C(=O)NO` [Example 8, 2S-[2R-(S-Hydroxy-hydroxycarbamoyl-methyl)-4-methyl-pentanoylamine]-3-phenyl-propionic acid isopropyl ester], the activity at 6 µM was found to be 1%.

Regarding `CC(C)C[C@@H](C(=O)N[C@@H](Cc1ccccc1)C(=O)OC(C)C)[C@H](C)C(=O)NO` [Example 9, 2S-[2R-(1S-Hydroxycarbamoyl-ethyl)-4-methyl-pentanoylamino]-3-phenyl-propionic acid isopropyl ester], the activity at 6 µM came to 8%.

In the case of `CCCCCC[C@H](CC(=O)NO)C(=O)N[C@@H](Cc1ccccc1)C(=O)OC(C)C` [Example 10, 2S-(2R-Hydroxycarbamoylmethyl-octanoylamino)-3-phenyl-propionic acid isopropyl ester], the activity at 6 µM was determined as 1%.

Consider `CC(C)C[C@@H](C(=O)N[C@@H](Cc1ccccc1)C(=O)OC1CCCC1)[C@H](O)C(=O)NO` [Example 11, 2S-[2R-(S-Hydroxy-hydroxycarbamoyl-methyl)-4-methyl-pentanoylamino]-3-phenyl-propionic acid cyclopentyl ester], for which the activity at 6 µM came to 0%.

On to `C=CC[C@H](C(=O)NO)[C@@H](CC(C)C)C(=O)N[C@H](C(=O)OC1CCCC1)C(C)CC` (stereo partly drawn) [Example 12, 2S-(3S-Hydroxycarbamoyl-2R-isobutyl-hex-5-enoylamino)-3S-methyl-pentanoic acid cyclopentyl ester], for which the activity at 6 µM amounted to 10%.

Regarding `C=CC[C@H](C(=O)NO)[C@@H](CC(C)C)C(=O)N[C@H](Cc1ccccc1)C(=O)OCCOC` [Example 13, 2S-(3S-Hydroxycarbamoyl-2R-isobutyl-hex-5-enoylamino)-3-phenylpropionic acid 2-methoxy-ethyl ester], the activity at 6 µM amounted to 4%.

As to `COCCOC(=O)[C@@H](Cc1ccccc1)NC(=O)[C@H](CC(C)C)[C@H](C)C(=O)NO` [Example 14, 2S-[2R-(1S-Hydroxycarbamoyl-ethyl)-4-methyl-pentanoylamino]-3-phenyl-propionic acid 2-methoxy-ethyl ester], the activity at 6 µM stood at 33%.

Regarding `CCC[C@H](C(=O)NO)[C@@H](CC(C)C)C(=O)N[C@@H](C(=O)OCCOC)C(C)(C)C` [Example 15, 2S-(3S-Hydroxycarbamoyl-2R-isobutyl-hexanoylamino)-3,3-dimethyl-butyric acid 2-methoxy-ethyl ester], the activity at 6 µM is 19%.

With `CO[C@H](C(=O)NO)[C@@H](CC(C)C)C(=O)N[C@@H](Cc1ccccc1)C(=O)OC(C)C` [Example 16, 2S-[2R-(S-Hydroxycarbamoyl-methoxy-methyl)-4-methyl-pentanoylamino]-3-phenyl-propionic acid isopropyl ester], the activity at 6 µM worked out at 2%.

Turning to `CC(C)C[C@@H](C(=O)N[C@@H](Cc1ccccc1)C(=O)OC(C)C)[C@H](CSc1cccs1)C(=O)NO` [Example 17, 2S-{2R-[1S-Hydroxycarbamoyl-2-(thiophen-2-ylsulphanyl)-ethyl]-4-methyl-pentanoylamino}-3-phenyl-propionic acid isopropyl ester], the activity at 6 µM turned out to be 0%.

Consider `COCCOC(=O)[C@H](NC(=O)[C@H](CC(C)C)[C@H](C)C(=O)NO)C(C)(C)C` [Example 18, 2S-[2R-(1S-Hydroxycarbamoyl-ethyl)-4-methyl-pentanoylamino]-3,3-dimethyl-butyric acid 2-methoxy-ethyl ester], for which the activity at 6 µM amounted to 54%.

On to `C=CC[C@H](C(=O)NO)[C@@H](CC(C)C)C(=O)N[C@@H](Cc1ccccc1)C(=O)OC1CCCC1` [Example 20, 2S-(3S-Hydroxycarbamoyl-2R-isobutyl-hex-5-enoylamino)-3-phenylpropionic acid cyclopentyl ester], for which the activity at 6 µM was 0%.

`CCC[C@H](C(=O)NO)[C@@H](CC(C)C)C(=O)N[C@@H](Cc1ccccc1)C(=O)OC(C)C` [Example 21, 2S-(3S-Hydroxycarbamoyl-2R-isobutyl-hexanoylamino)-3-phenylpropionic acid isopropyl ester]: the activity at 6 µM was determined as 1%.

In the case of `C=CC[C@H](C(=O)NO)[C@@H](CC(C)C)C(=O)N[C@H](C(=O)OC(C)C)C(C)(C)C` [Example 22, 2S-(3S-Hydroxycarbamoyl-2R-isobutyl-hex-5-enoylamino)-3,3-dimethyl-butyric acid isopropyl ester], the activity at 6 µM is 51%.

For `C=CC[C@H](C(=O)NO)[C@@H](CC(C)C)C(=O)N[C@H](Cc1ccccc1)C(=O)OC(C)C` [Example 23, 2R-(3S-Hydroxycarbamoyl-2R-isobutyl-hex-5-enoylamino)-3-phenylpropionic acid isopropyl ester], the activity at 6 µM came out at 36%.

Take `CO[C@H](C(=O)NO)[C@@H](CC(C)C)C(=O)N[C@H](C(=O)OC(C)C)C(C)(C)C` [Example 24, 2S-[2R-(S-Hydroxycarbamoyl-methoxy-methyl)-4-methyl-pentanoylamino]-3,3-dimethyl-butyric acid isopropyl ester]: the activity at 6 µM amounted to 50%.

For the molecule `C=CC[C@H](C(=O)NO)[C@@H](CC(C)C)C(=O)N(C)[C@@H](Cc1ccccc1)C(=O)OC(C)C` [Example 25, 2S-{(3S-Hydroxycarbamoyl-2R-isobutyl-hex-5-enoyl)-methyl-amino)-3-phenylpropionic acid isopropyl ester], the activity at 6 µM is 34%.

Turning to `C=CC[C@H](C(=O)NO)[C@@H](CC(C)C)C(=O)N[C@@H](Cc1ccccc1)C(=O)OCc1ccccc1` [Example 26, 2S-(3S-Hydroxycarbamoyl-2R-isobutyl-hex-5-enoylamino)-3-phenylpropionic acid benzyl ester], the activity at 6 µM was determined as 0%.

On to `C=CC[C@H](C(=O)NO)[C@@H](CC(C)C)C(=O)N[C@@H](CC(C)C)C(=O)OC1CCCC1` [Example 27, 2S-(3S-Hydroxycarbamoyl-2R-isobutyl-hex-5-enoylamino)-4-methyl-pentanoic acid cyclopentyl ester], for which the activity at 6 µM came out at 0%.
